Like-named read-outs stand apart in the source and are kept apart here.
How the values were obtained:
[1] = cyclic voltammetry; assay type: physicochemical; conditions: DMF, 0.2 M [n-Bu4N][BF4], 1.5 mM complex, scan rate 100 mV s^-1
Method: Since the redox potential is a crucial characteristic for the activation of cobalt(III)-based prodrugs systems, we investigated the novel complexes by cyclic voltammetry in comparison to Co(acac)2LEGFR. Measurements were performed in dimethylformamide (DMF) (+0.2 M [n-Bu4N][BF4]) at a scan speed of 100 mV s^−1. […] Even at a higher scan speed of 1000 mV s^−1, the redox processes were still completely irreversible for all complexes (Fig. S5 ^†).
The compounds were dissolved in DMF (+0.2 M [n-Bu4N][BF4]) to obtain a final concentration of 1.5 mM. Electrochemical experiments were conducted on an EG&G PARC 273A potentiostat/galvanostat with a scan rate of 100–1000 mV s^−1 at room temperature. Argon was bubbled through the solution before every measurement to remove oxygen. A three-electrode configuration cell was used with a glassy carbon electrode as working electrode, which was polished before every measurement. The reference electrode was Ag/Ag^+/ACN (10 mM AgNO3) and the auxiliary electrode was a platinum wire. The potentials were referenced to an internal standard redox couple of ferrocenium/ferrocene and calculated to the NHE (E1/2 = +0.72 V vs. NHE).[63] […] Redox potentials measured relative to the Ag/AgCl/KCl (3.5 M) reference electrode and converted to the NHE using +0.205 V. Measurements were at least repeated three times and the mean values were calculated.

[2] = test system: K-562 cells; assay: cell-associated LPon fluorescence by flow cytometry (ligand release); assay type: cell-based, human; conditions: 24 h, 10 μM, normoxic
Method: Prior to the evaluation of the anticancer activity of our novel derivatives in cell culture models, we examined the stability of Co(acac)2LPon and Co(Meacac)2LPon in the presence of cells under normoxic conditions. The stability was determined by the appearance of LPon-associated fluorescence (vide supra) in BCR-ABL-driven K-562 leukemia cells via flow cytometry. […] Despite significant LPon-release from the two complexes over time (up to 24 h), in case of Co(Meacac)2LPon cell-associated fluorescence remained more than 7.5-fold lower after 24 h as compared to the free ligand.
Next, the impact of hypoxia on the stability of our novel derivatives was evaluated by monitoring intracellular fluorescence intensities under normoxic (21% O2) vs. hypoxic (0.1% O2) conditions. […] Hypoxic fluorescence activation in case of both cobalt(III) complexes was time-dependent, reaching significance after 6 h of compound incubation and resulting in 2- to 4-fold higher intensities.
Cells were seeded (1 × 10^6 cells per well) in 96-well plates, dissolved compounds were added and cells were incubated under normoxic or hypoxic cell culture conditions. Samples were measured on a BD LSRFortessa X-20 cell analyzer high throughput sampler (HTS) (BD Biosciences, East Rutherford, NJ, USA). Compound fluorescence was detected using 405 nm excitation and pacific blue (450/50 nm) band pass emission filters. […]

[3] = serum stability in fetal calf serum (HPLC-MS); assay type: in vitro ADME; conditions: 37 °C
Method: Therefore, we only investigated the stability of the novel complexes in fetal calf serum (FCS). As reference again Co(acac)2LEGFR[26] was included. The complexes were dissolved in 50 mM phosphate puffer and mixed 1 : 10 with fetal calf serum (FCS; buffered with 150 mM phosphate buffer to keep a stable pH of 7.4) to a final concentration of 50 μM. The samples were incubated at 37 °C and after 0, 2, 4, 6, 24 and 26 h extracted with acetonitrile and measured by HPLC-MS. […] This indeed confirms, that by avoiding the direct attachment of the ethylenediamine moiety to an aromatic ring system, complexes with much higher stability can be generated. Since no distinct difference in stability between Co(acac)2LPon and Co(Meacac)2LPon within 26 h could be observed, measurements were repeated up to 72 h.
For serum stability measurements, 135 μL FCS, buffered with 150 mM phosphate (Na2HPO4/NaH2PO4) to maintain a pH value of 7.4, were mixed with 15 μL of a 500 μM stock solution of the respective complex in 50 mM phosphate buffer to reach a final concentration of 50 μM. The samples were incubated at 37 °C. At different time points to 20 μL serum 40 μL of ACN were added. After vigorously shaking for 2 min the suspension was centrifuged at 6000 rpm for 10 min. The supernatant was taken with a syringe and directly measured via HPLC-MS. The samples were analyzed on an Agilent 1260 Infinity system using a Waters Atlantis T3 column (150 mm × 4.6 mm) coupled to a Bruker Amazon SL ESI-IT mass spectrometer. Water and acetonitrile (both containing 0.1% formic acid) were used as eluents with a gradient of 1–99% acetonitrile within 29 min.

[4] = test system: A431; conditions: cited from earlier work
[5] = test system: H1975; conditions: cited from earlier work
[6] = molecular target: ABL1 (Homo sapiens, UniProt P00519); assay: cell-free kinase inhibition assay (Z'-LYTE, SelectScreen); assay type: biochemical; conditions: 10-fold excess of ATP, 1% DMSO, read-out: IC50 against ABL1
Description: (§1) The test compounds were screened in a final concentration of 1% DMSO using the Z′-LYTE® Assay.

[7] = molecular target: FGFR1 (Homo sapiens, UniProt P11362); assay: as above; assay type: biochemical
Description: as §1

[8] = test system: UM-UC-14 cells; assay: ligand release by UV fluorescence microscopy; assay type: cell-based, human; conditions: 10 μM, 24 h, UM-UC-14, fluorescence microscopy
Method: The enhanced stability of Co(acac)2LPon under normoxia and its hypoxia-induced ligand release was subsequently confirmed by fluorescence microscopy. Fluorescence intensities indicated a ∼2.8-fold decreased stability of the cobalt(III) complex under hypoxic vs. normoxic cell culture conditions.
UM-UC-14 cells were seeded (2.5 × 10^5 cells per well) in 12-well plates and after 24 h recovery treated with 10 μM of compounds. After 24 h incubation, the drug solutions were removed, cells were washed with PBS and microphotographs of the different treatments were taken using UV fluorescence microscopy (Nikon Eclipse Ti2 microscope with a DAPI filter and a high-pressure mercury lamp) and a 20× objective. The level of cellular fluorescence was determined from fluorescence microscopy images using ImageJ software.
Figure S9: Ligand release of Co(acac)2LPon under normoxic and hypoxic cell culture conditions in comparison to LPon using UV fluorescence microscopy. UM-UC-14 cells were incubated with 10 µM of compounds for 24 h. Images of the different treatments were taken by UV fluorescence microcopy (20X objective) and the corrected total cell fluorescence was evaluated using ImageJ software. Data in Figure S9B are given as means ± SD of ten analyzed microphotographs per compound. Statistical significance was calculated by unpaired t test with p < .05(*). […]

[9] = test system: BCR-ABL-positive K-562 leukemic cells; assay: MTT vitality assay, 72 h, normoxic vs hypoxic; assay type: cell-based; conditions: Homo sapiens, K562, 72 h, printed in picture Fig. 9A, read-out: IC50, K-562 cell viability
Method: In case of hypoxic cell culture conditions, plated and treated cells were incubated at 37 °C, 5% CO2 and 0.1% O2 (ProOx Model C21 system, BioSpherix) in humidified incubators for the indicated time point before analysis. All investigated compounds were dissolved in dimethyl sulfoxide (DMSO) as 10 mM stock solutions and were stored at −20 °C. Dilutions in culture media supplemented with 10% fetal calf serum were made immediately before the experiments at the indicated concentrations. Corresponding dilutions of DMSO were used as untreated vehicle controls.
Cells were seeded (3–7 × 10^4 cells per well) in 96-well plates and after 24 h recovery treated with increasing concentrations of compounds in triplicates. After 72 h drug exposure under normoxic or hypoxic cell culture conditions (0.1% O2) (ProOx Model C21 system, BioSpherix), the proportion of viable cells was determined by 3-(4,5-dimethylthiazol-2-yl)-2,5-diphenyltetrazolium bromide (MTT)-vitality assay (EZ4U, Biomedica, Vienna, Austria) or by luminescence assay based on adenosine triphosphate quantification (CellTiter-Glo, Promega, Madison, Wisconsin) following the manufacturer's recommendations. […] MTT-derived cytotoxicity was expressed as IC50 values calculated from full dose–response curves using GraphPad Prism software (La Jolla, CA).

[10] = test system: p-ERK1/2 and p-S6 in K-562 cells; assay: western blot of downstream signalling, 12 h; assay type: cell-based, human; conditions: K-562, 12 h, western blot
Method: Fig. 10 Impact of the cobalt(III) complexes on the ERK1/2 and S6 under normoxic and hypoxic conditions. K-562 cells were treated with the compounds, after 12 h cell lysates were prepared and protein expression as well as phosphorylation levels of downstream pathways (p-ERK1/2 and p-S6) analyzed by western blotting. One representative experiment out of three is shown. The ratio of phosphorylated to total protein is given between the respective lanes.
K-562 cells were plated (5 × 10^5 cells per well) in 6-well plates and allowed to recover for 24 h. Subsequently, the cells were treated with the drugs in different concentrations. After 12 h cells were harvested, proteins were isolated, resolved by sodium dodecyl sulfate polyacrylamide gel electrophoresis (SDS/PAGE), and transferred onto a polyvinylidene difluoride membrane for western blotting. The following antibodies were used: ERK1/2 (p44/42) rabbit monoclonal antibody (mAb) (137F5, #4695), phospho-ERK1/2 rabbit mAb (Thr202/Tyr204) (20G11, #4376), phospho-S6 rabbit pAb (Ser240/244, #2215) (Cell Signaling Technology, Beverly, MA, USA), S6 mouse mAb (C-8. #sc-74459) (Santa Cruz Biotechnology, TX, USA) and β-actin mouse mAb (#A5441, Sigma). All primary antibodies were used in 1 : 1000 dilutions (in Tris-buffered saline containing 0.1% Tween20 (TBST) + 3% bovine serum albumin (BSA)). Secondary goat anti-mouse-IgG (Fc specific)-peroxidase antibody (#A0168, Sigma) and horseradish peroxidase(HRP)-labeled mouse anti-rabbit IgG (#sc-2357, Santa Cruz Biotechnology) were used at working dilutions of 1 : 10 000 (in TBST + 1% BSA).

[11] = normoxic as well as hypoxic conditions

Sequence of FGFR1 (P11362 22-822): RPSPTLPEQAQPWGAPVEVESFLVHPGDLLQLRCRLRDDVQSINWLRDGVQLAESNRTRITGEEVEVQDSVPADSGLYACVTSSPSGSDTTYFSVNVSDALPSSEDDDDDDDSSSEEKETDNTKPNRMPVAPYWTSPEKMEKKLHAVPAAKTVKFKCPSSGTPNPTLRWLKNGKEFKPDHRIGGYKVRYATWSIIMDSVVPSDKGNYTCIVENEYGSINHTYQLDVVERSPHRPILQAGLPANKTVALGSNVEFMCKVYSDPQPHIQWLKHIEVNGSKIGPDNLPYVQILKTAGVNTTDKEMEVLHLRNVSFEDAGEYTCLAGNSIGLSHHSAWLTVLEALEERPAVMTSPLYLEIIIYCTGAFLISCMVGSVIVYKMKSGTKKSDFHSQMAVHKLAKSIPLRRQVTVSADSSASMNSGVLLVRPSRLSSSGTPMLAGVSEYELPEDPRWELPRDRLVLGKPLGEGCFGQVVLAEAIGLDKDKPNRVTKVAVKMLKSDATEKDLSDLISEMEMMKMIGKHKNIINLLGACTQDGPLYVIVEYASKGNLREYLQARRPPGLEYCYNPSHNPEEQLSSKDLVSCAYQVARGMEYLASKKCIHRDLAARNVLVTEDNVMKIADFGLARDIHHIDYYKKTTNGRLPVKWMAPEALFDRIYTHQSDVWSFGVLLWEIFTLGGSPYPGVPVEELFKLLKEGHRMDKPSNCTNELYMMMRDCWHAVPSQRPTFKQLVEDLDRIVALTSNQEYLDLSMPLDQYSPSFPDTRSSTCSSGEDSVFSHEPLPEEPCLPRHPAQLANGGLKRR
Sequence of ABL1 (P00519 whole entry): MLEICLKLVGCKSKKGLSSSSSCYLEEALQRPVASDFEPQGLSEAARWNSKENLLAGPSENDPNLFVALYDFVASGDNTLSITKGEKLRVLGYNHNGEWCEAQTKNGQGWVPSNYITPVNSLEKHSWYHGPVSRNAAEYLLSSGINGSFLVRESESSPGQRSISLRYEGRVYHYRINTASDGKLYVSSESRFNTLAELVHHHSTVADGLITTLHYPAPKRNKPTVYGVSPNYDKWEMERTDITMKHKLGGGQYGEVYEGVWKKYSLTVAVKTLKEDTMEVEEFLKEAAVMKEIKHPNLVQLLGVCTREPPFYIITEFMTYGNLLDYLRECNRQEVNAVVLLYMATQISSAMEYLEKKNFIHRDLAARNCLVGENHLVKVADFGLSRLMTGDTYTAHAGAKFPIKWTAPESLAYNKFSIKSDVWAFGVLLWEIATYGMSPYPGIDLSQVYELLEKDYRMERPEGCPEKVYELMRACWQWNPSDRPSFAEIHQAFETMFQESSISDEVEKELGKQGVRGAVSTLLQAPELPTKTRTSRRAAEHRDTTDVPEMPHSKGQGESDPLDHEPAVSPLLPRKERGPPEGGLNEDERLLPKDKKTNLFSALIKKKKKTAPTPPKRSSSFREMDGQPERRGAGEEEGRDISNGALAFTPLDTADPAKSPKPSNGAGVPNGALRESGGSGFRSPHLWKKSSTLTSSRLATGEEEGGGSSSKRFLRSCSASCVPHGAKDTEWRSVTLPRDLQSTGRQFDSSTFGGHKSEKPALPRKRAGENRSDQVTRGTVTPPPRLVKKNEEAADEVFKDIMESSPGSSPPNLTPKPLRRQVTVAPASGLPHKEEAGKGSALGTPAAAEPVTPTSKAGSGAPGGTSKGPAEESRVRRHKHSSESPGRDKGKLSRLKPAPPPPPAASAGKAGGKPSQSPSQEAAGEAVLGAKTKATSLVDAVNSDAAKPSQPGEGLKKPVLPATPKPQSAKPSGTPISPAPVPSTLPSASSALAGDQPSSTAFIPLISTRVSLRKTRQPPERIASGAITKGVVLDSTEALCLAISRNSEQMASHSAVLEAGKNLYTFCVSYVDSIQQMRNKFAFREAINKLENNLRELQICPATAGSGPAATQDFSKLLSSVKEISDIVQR

CC(=O)C(C)=C(C)[O-].CC(=O)C(C)=C(C)[O-].Cc1ccc(C(=O)Nc2ccc(CNCCN)c(C(F)(F)F)c2)cc1C#Cc1cnc2cccnn12.O=C(O)C(F)(F)F.[Co+3] [Co(Meacac)2LPon, Bis(3-methyl-2,4-pentanedionato) N-(4-(((2-aminoethyl)amino)methyl)-3-(trifluoromethyl)phenyl)-3-(imidazo[1,2-b]pyridazin-3-ylethynyl)-4-methylbenzamide cobalt(III) 2,2,2-trifluoroacetate]
cathodic peak potential (Co(III) to Co(II), irreversible) [1]: −442 mV vs. NHE
cell-associated fluorescence, fold lower than the free ligand [2]: more than 7.5 fold
intact complex remaining in FCS ([3]; 26 h, pH 7.4, 50 μM): ~90%
intact compound remaining in FCS ([3]; 72 h, pH 7.4): ~80%

[Cl-].[Cl-].[Co+2] [CoCl2]
cytotoxic activity [4]: no significant cytotoxic activity
cytotoxic activity [5]: no significant cytotoxic activity

Cc1ccc(C(=O)Nc2ccc(CNCCN)c(C(F)(F)F)c2)cc1C#Cc1cnc2cccnn12 [LPon, N-(4-(((2-Aminoethyl)amino)methyl)-3-(trifluoromethyl)phenyl)-3-(imidazo[1,2-b]pyridazin-3 ylethynyl)-4-methylbenzamide·3TFA]
IC50 [6]: 1.93 nM
factor by which FGFR inhibition is weaker than ponatinib ([7]; cell-free IC50 ratio vs ponatinib): ~5
IC50 ([7]; cell-free, 10-fold excess of ATP, 1% DMSO, read-out: IC50 against FGFR1): 25.9 nM
fluorescence intensity change (decreased stability) hypoxic vs. normoxic [8]: remained unaffected
IC50 ([9]; hypoxic (H, 0.1% O2)): 3.67 nM
IC50 ([9]; normoxic (N, 21% O2)): 4.57 nM
activity on ERK1/2 and S6 phosphorylation, normoxic vs hypoxic [10]: equally active under the two oxygen conditions

CC(=O)[CH-]C(C)=O.CC(=O)[CH-]C(C)=O.NCCN.[Co+2] [[Co(II)(acac)2en]]
cytotoxic activity [4, 11]: no significant cytotoxic activity
cytotoxic activity [5, 11]: no significant cytotoxic activity

CC(=O)[CH-]C(C)=O.CC(=O)[CH-]C(C)=O.F[P-](F)(F)(F)(F)F.NCCN.[Co+3] [[Co(III)(acac)2en]PF6]
cytotoxic activity [4, 11]: no significant cytotoxic activity
cytotoxic activity [5, 11]: no significant cytotoxic activity
